Each structure is given as a SMILES string.

Series [1] can be described thus: aqueous solubility of the polymorphic form. The settings on record: Form A as prepared by the procedures of the '479 patent. Type of series: physicochemical.
A short description of series [2]: bioavailability of the polymorphic form. The settings on record: Form A as prepared by the procedures of the '479 patent.
Series [3] in a line: stability of the crystalline form. Type of series: physicochemical.
A short description of series [4]: DSC thermogram of combined Forms A, B and C (melting points compared, solubility inferred). The class given is physicochemical. The settings on record: 10° C. per minute, nitrogen purge, FIG. 8. The method, then: DSC data were generated using a Mettler-Toledo DSC 821^e (Columbus, Ohio) with a Julabo FT900 intercooler chiller (Julabo Company; Allentown, Pa.). In general, samples were analyzed in a vented, sealed aluminum pan. Because the endothermic peak may vary depending upon the rate of heating and the calibration and precision of the instrument, with the amount of peak variation dependent upon the heating rate used, all thermograms included herein were run under the same, consistent conditions: heating at 10° C. per minute under a nitrogen purge at 40 mL/minute.
FIG. 8 illustrates a DSC thermogram for the combination of Form A, Form B and Form C having a second heating cycle with a maximum temperature of about 110° C. with a holding time of about 30 minutes. The peaks in the third heating cycle show a Form A to Form B to Form C peak area ratio of approximately 8:2:1, respectively, with the relative amount of Form A, Form B and Form C further variable on the heat of enthalpy of each polymorphic form.

The nature of series [5]: DSC reheating of disturbed (scratched/stressed) sample: solid state phase transformation to Form A. The class given is physicochemical. The settings on record: DSC heating from 30° C. to approximately 200° C. at 10° C. per minute. The protocol: DSC data were generated using a Mettler-Toledo DSC 821^e (Columbus, Ohio) with a Julabo FT900 intercooler chiller (Julabo Company; Allentown, Pa.). In general, samples were analyzed in a vented, sealed aluminum pan. Because the endothermic peak may vary depending upon the rate of heating and the calibration and precision of the instrument, with the amount of peak variation dependent upon the heating rate used, all thermograms included herein were run under the same, consistent conditions: heating at 10° C. per minute under a nitrogen purge at 40 mL/minute. The resultant sample of Example 1A was disturbed with scratching, which caused the cilostazol sample to undergo a solid state phase transformation at approximately 119° C. followed by an endotherm of melt at approximately 160° C. (Form A) during heating by DSC from 30° C. to approximately 200° C. at 10° C. per minute. When the sample is stressed and reheated (as detailed in Example 2A), the sample undergoes a solid state phase transformation at approximately 147° C. followed by an endotherm of melt at about 160° C. (Form A) during heating by DSC from 30° C. to approximately 200° C. at 10° C. per minute. This disturbance of sample is believed to induce nucleation which preferentially causes Form A of cilostazol to form upon heating.

As for `O=C1CCc2cc(OCCCCc3nnnn3C3CCCCC3)ccc2N1` [Form A, 6-[4-(1-cyclohexyl-1H-tetrazol-5-yl)butoxy]-3,4-dihydro-2(1H)-quinolinone], the aqueous solubility result in series [1] is “low aqueous solubility”. Moreover, the bioavailability entry in series [2] was “low bioavailability”.
Turning to `O=C1CCc2cc(OCCCCc3nnnn3C3CCCCC3)ccc2N1` [Form B, 6-[4-(1-cyclohexyl-1H-tetrazol-5-yl)butoxy]-3,4-dihydro-2(1H)-quinolinone], the “stability of the polymorphic form” value in series [3] is reported as “stable”. The “solubility relative to Form A, suggested by lower melting point in DSC” value in series [4] is listed as “more soluble than Form A”. The “temperature of solid state phase transformation to Form A” value in series [5] was “approximately 119 °C”.
On the same counts, the results for `O=C1CCc2cc(OCCCCc3nnnn3C3CCCCC3)ccc2N1` [Form C, 6-[4-(1-cyclohexyl-1H-tetrazol-5-yl)butoxy]-3,4-dihydro-2(1H)-quinolinone] are “stable”, “more soluble than Form A” and “approximately 147 °C”.

The values are drawn from patent publication US6573382B2, “Polymorphic forms of 6-[4-(1-cyclohexyl-1H-tetrazol-5-yl)butoxy]-3,4-dihydro-2(1H)-quinolinone” (priority 2001, dated 2003).
